Reference: ChEMBL document CHEMBL1201862, “PubChem BioAssay data set” (2004)
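Results reflect a 48-hour exposure of cells in 96-well plates to compound at five concentrations. GI50 is the concentration that inhibits growth by half.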 Activity calls are given as the source filed them. Rule as the data show it: active = GI50 up to about 1.1 µM and inactive = higher.

How the values were obtained:
Assay in all cases: NCI-60 cell line screen, 48 h
MOLT-4 = system: MOLT-4
OVCAR-3 = system: OVCAR-3
NCI-H226 = system: NCI-H226
CAKI-1 = system: CAKI-1
HCC 2998 = system: HCC 2998
NCI/ADR-RES = system: NCI/ADR-RES
HOP-62 = system: HOP-62
SK-MEL-28 = system: SK-MEL-28
HT-29 = system: HT-29
SW-620 = system: SW-620
786-0 = system: 786-0
HL-60 = system: HL-60
SNB-19 = system: SNB-19
SF-268 = system: SF-268
MDA-MB-231 = system: MDA-MB-231
RXF 393 = system: RXF 393
SF-539 = system: SF-539
A498 = system: A498
PC-3 = system: PC-3
COLO 205 = system: COLO 205
CCRF-CEM = system: CCRF-CEM
NCI-H23 = system: NCI-H23
SK-MEL-5 = system: SK-MEL-5
UO-31 = system: UO-31
T47D = system: T47D
OVCAR-4 = system: OVCAR-4
IGROV-1 = system: IGROV-1
MCF7 = system: MCF7
Hs-578T = system: Hs-578T
OVCAR-8 = system: OVCAR-8
BT-549 = system: BT-549
SR = system: SR
UACC-62 = system: UACC-62
SN12C = system: SN12C
K562 = system: K562
SK-OV-3 = system: SK-OV-3
SF-295 = system: SF-295
M14 = system: M14
MDA-MB-435 = system: MDA-MB-435
RPMI-8226 = system: RPMI-8226
NCI-H522 = system: NCI-H522
KM12 = system: KM12
U-251 = system: U-251
SK-MEL-2 = system: SK-MEL-2
HCT-15 = system: HCT-15
OVCAR-5 = system: OVCAR-5
SNB-75 = system: SNB-75
A549 = system: A549
HCT-116 = system: HCT-116
DU-145 = system: DU-145
EKVX = system: EKVX
Malme-3M = system: Malme-3M
HOP-92 = system: HOP-92
TK-10 = system: TK-10
ACHN = system: ACHN
LOX IMVI = system: LOX IMVI

Measured: GI50

C=C1C(=O)O[C@H]2[C@@H](O)[C@H](C)CCC[C@]3(C)O[C@H]3CC[C@@]3(C)O[C@@H]3C[C@@H]12
active: HL-60 0.897 µM
inactive: MOLT-4 1.55 µM | OVCAR-3 4.31 µM | NCI-H226 7.43 µM | CAKI-1 6.22 µM | HCC 2998 4.93 µM | NCI/ADR-RES 7.73 µM | HOP-62 7.4 µM | SK-MEL-28 2.83 µM | HT-29 5.66 µM | SW-620 1.52 µM | 786-0 5.15 µM | SNB-19 11.9 µM | SF-268 6.07 µM | MDA-MB-231 4.08 µM | RXF 393 1.67 µM | SF-539 6.81 µM | A498 7.33 µM | PC-3 7.43 µM | COLO 205 3.01 µM | CCRF-CEM 1.58 µM | NCI-H23 6.49 µM | SK-MEL-5 4.04 µM | UO-31 6.04 µM | T47D 7.66 µM | OVCAR-4 2.66 µM | IGROV-1 5.24 µM | MCF7 2.08 µM | Hs-578T 7.59 µM | OVCAR-8 6.25 µM | BT-549 1.24 µM | SR 1.43 µM | UACC-62 2.3 µM | SN12C 5.74 µM | K562 1.14 µM | SK-OV-3 10.1 µM | SF-295 8.55 µM | M14 6.11 µM | MDA-MB-435 3.74 µM | RPMI-8226 2.15 µM | NCI-H522 1.12 µM | KM12 7.94 µM | U-251 8.57 µM | SK-MEL-2 9.2 µM | OVCAR-5 6.22 µM | SNB-75 6.9 µM | A549 9.33 µM | HCT-116 1.75 µM | DU-145 6.52 µM | EKVX 4.06 µM
1.29 µM: HCT-15

COC(=O)C(NC(=O)C12CCC(C)(C(=O)O1)C2(C)C)c1cc(C(C)(C)C)c(O)c(C(C)(C)C)c1 (stereo not given)
91.2 µM: HCT-15
inactive: MOLT-4 42.2 µM | OVCAR-3 > 100 µM | NCI-H226 > 100 µM | CAKI-1 > 100 µM | NCI/ADR-RES > 100 µM | HOP-62 > 100 µM | SK-MEL-28 > 100 µM | HT-29 72.9 µM | SW-620 77.3 µM | 786-0 > 100 µM | HL-60 4.95 µM | SNB-19 > 100 µM | SF-268 > 100 µM | MDA-MB-231 > 100 µM | RXF 393 83.2 µM | SF-539 > 100 µM | Malme-3M > 100 µM | A498 > 100 µM | PC-3 67 µM | COLO 205 49.4 µM | CCRF-CEM 39.9 µM | NCI-H23 > 100 µM | SK-MEL-5 21.7 µM | UO-31 95.9 µM | T47D 81.7 µM | OVCAR-4 > 100 µM | IGROV-1 > 100 µM | MCF7 47.5 µM | HOP-92 > 100 µM | Hs-578T 94 µM | OVCAR-8 > 100 µM | BT-549 > 100 µM | SR 68.2 µM | UACC-62 > 100 µM | K562 64 µM | SK-OV-3 > 100 µM | TK-10 57.7 µM | SF-295 > 100 µM | ACHN > 100 µM | M14 > 100 µM | LOX IMVI > 100 µM | MDA-MB-435 > 100 µM | RPMI-8226 14.7 µM | NCI-H522 > 100 µM | KM12 23.5 µM | U-251 73.1 µM | SK-MEL-2 > 100 µM | OVCAR-5 > 100 µM | SNB-75 > 100 µM | A549 > 100 µM | HCT-116 64.3 µM | DU-145 > 100 µM | EKVX > 100 µM
